According to US20140023611A1 (priority 2010, published 2014):

Columns and labels:
[1] = Stability of compounds in simulated gastric fluid (SGF); format: in vitro ADME; conditions: simulated gastric fluid (3 mg/mL pepsin), incubation time 6 hr, relative to t=0
Procedure: (§1) Test compounds were incubated at […] in simulated gastric fluid (SGF; standard USP solution with 3 mg/mL pepsin) or simulated intestinal fluid (SIF; standard USP solution with 3 mg/mL pancreatin) for 3 hr or 6 hr. HPLC-UV or HPLC-MS were used to determine test compound levels using peak area %. Results (Table 14) were reported as the percentage of test compound remaining after incubation in a given condition relative to test compound present at t=0 in the same condition.

human NaP2b (SLC34A2) = target: T1, human NaP2b (SLC34A2) (Homo sapiens, UniProt O95436); assay: Inhibition of NaP2b-mediated Pi (33P) uptake in transfected HEK293 cells, human NaP2b; format: cell-based; conditions: read-out: pIC50 range for human NaP2b (converted)
T1 construct: host or cells: HEK293
T1 sequence (O95436 1-690): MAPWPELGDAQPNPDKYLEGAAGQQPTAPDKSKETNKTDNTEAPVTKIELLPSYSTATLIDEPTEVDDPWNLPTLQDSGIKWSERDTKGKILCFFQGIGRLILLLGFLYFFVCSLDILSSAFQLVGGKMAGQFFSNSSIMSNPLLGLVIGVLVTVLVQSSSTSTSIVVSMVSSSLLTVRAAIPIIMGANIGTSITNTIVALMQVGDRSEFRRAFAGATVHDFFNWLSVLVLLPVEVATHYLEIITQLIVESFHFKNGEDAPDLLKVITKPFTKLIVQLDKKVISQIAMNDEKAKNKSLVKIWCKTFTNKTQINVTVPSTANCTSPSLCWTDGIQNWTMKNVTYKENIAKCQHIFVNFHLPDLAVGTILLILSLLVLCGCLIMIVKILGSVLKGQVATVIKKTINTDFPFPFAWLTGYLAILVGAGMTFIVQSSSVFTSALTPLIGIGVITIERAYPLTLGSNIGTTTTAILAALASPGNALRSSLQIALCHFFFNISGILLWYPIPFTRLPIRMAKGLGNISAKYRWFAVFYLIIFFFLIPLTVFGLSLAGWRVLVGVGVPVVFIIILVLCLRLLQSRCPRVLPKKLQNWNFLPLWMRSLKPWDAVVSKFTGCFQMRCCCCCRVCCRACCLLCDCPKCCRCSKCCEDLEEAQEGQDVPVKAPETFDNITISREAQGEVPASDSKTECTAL
How it was run: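 HEK293 cells transiently transfected with human NaP2b (Thr inserted after residue 37, N39D), endogenous PiT transport pharmacologically silenced. Sodium or choline buffer, pH 7.4, with 100 uM KH2PO4, 33P orthophosphate and compound (0.1 nM–30 uM, twelve concentrations, duplicate). 3-30 min at room temperature, scintillation counting, pIC50 derived.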

[2] = Stability of compounds in simulated intestinal fluid (SIF); format: in vitro ADME; conditions: simulated intestinal fluid (3 mg/mL pancreatin), incubation time 6 hr, relative to t=0
Procedure: as §1

rat NaP2b (SLC34A2) = target: T2, rat NaP2b (SLC34A2) (Rattus norvegicus, UniProt Q9JJ09); assay: Inhibition of NaP2b-mediated Pi (33P) uptake in transfected HEK293 cells, rat NaP2b; format: cell-based; conditions: 33P Pi uptake, 0.1 mM phosphate, value given as pIC50 range
T2 construct: host or cells: HEK293
T2 sequence (Q9JJ09 1-695): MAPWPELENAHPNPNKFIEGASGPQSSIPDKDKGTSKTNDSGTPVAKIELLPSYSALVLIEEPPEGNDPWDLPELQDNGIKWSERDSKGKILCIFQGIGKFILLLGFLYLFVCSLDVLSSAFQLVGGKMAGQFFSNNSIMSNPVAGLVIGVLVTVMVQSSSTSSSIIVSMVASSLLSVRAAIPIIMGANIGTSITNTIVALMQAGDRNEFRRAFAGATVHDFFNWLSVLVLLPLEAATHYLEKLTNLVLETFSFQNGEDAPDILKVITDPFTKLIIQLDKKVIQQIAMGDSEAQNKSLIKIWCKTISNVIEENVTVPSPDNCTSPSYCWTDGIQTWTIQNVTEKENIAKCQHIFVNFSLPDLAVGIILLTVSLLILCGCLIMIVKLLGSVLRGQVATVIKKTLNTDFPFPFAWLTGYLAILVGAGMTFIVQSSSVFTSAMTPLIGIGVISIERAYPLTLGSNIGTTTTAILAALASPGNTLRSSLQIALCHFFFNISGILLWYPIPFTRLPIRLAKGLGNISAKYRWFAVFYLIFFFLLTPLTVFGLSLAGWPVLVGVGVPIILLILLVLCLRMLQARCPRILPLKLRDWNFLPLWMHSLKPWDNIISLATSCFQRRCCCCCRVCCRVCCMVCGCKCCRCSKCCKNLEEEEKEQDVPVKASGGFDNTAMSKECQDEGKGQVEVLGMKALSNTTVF
How it was run: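 HEK293 cells were transiently transfected with NaP2b cDNA using Lipofectamine and grown near confluence. Compounds were tested at twelve concentrations from 0.1 nM to 30 uM in duplicate, and 33P-phosphate uptake was counted by scintillation after lysis. Results are expressed as pIC50.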

[3] = Determination of compound Cmax and AUC after oral gavage (plasma LC-MS/MS); format: in vivo, Sprague-Dawley rats; conditions: Sprague-Dawley, rat, plasma, po, Structure (I) examples, Table 15, actual oral dose 3-15 mg/kg, plasma 0.5-4 h
How it was run: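 Sprague-Dawley rats dosed by oral gavage at nominal 2.5 or 10 mg/kg; blood drawn at 0.5, 1, 2 and 4 h into K2EDTA. Plasma protein-precipitated with acetonitrile plus internal standard and analysed by LC-MS/MS against a plasma standard curve to derive Cmax and AUC.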

Structure (SMILES)	% remaining, SGF [1] [%]	IC50 (human NaP2b (SLC34A2)) [nM]	% remaining, SIF [2]	IC50 (rat NaP2b (SLC34A2)) [nM]	AUC [3] [ng·h/mL]	Cmax [3] [ng/mL]
COCCOCCOCCOCCOCCOCCOCCOCCOCc1cccc(C(=O)Nc2ccc(OC3CCC3)cc2-c2cc(C(=O)N[C@H]3CCCc4ccccc43)ccn2)c1 [Example 205, (S)-2-(2-(3-(2,5,8,11,14,17,20,23,26-nonaoxaheptacosyl)benzamido)-5-cyclobutoxyphenyl)-N-(1,2,3,4-tetrahydronaphthalen-1-yl)isonicotinamide]	>80	< 1000	>80%	< 1000		
COCCOCCOCCOCCOCCOCCOCCOCCOCc1cccc(C(=O)Nc2ccc(OC3CCC3)cc2-c2cc(C(=O)NCc3cccc(C(F)(F)F)c3)ccn2)c1 [Example 202, 2-(2-(3-(2,5,8,11,14,17,20,23,26-nonaoxaheptacosyl)benzamido)-5-cyclobutoxyphenyl)-N-(3-(trifluoromethyl)benzyl)isonicotinamide]	>80	< 1000	>80%	1000 to 7940		
CCN(CC)c1ccc(NC(=O)c2cccc(COCCOCCOCCOCCOCCOCCOC(=O)N3CCC(CCOCCO)CC3)c2)c(-c2cc(C(=O)NCc3cccc(C(F)(F)F)c3)ccn2)c1 [Example 171, 1-(3-(4-(diethylamino)-2-(4-(3-(trifluoromethyl)benzylcarbamoyl)pyridin-2-yl)phenylcarbamoyl)phenyl)-2,5,8,11,14,17-hexaoxanonadecan-19-yl 4-(2-(2-hydroxyethoxy)ethyl)piperidine-1-carboxylate]	>80	< 1000	>80%	1000 to 7940		
CCN(CC)c1ccc(NC(=O)c2cccc(COCCOCCOCCOCCOCCOCCOC(=O)NCCN3CCOCC3)c2)c(-c2cc(C(=O)NCc3cccc(C(F)(F)F)c3)ccn2)c1 [Example 169, 1-(3-(4-(diethylamino)-2-(4-(3-(trifluoromethyl)benzylcarbamoyl)pyridin-2-yl)phenylcarbamoyl)phenyl)-2,5,8,11,14,17-hexaoxanonadecan-19-yl 2-morpholinoethylcarbamate]	>80	< 1000	60-80%	< 1000		
O=C(CCOCCOCCOCCOCCSCc1cccc(C(=O)Nc2ccc(N3CCCCC3)cc2-c2cc(C(=O)NCc3cccc(C(F)(F)F)c3)ccn2)c1)NCCOCCOCCOCCOCCOCCOCCOCCO [Example 149, 2-(2-(3-(41-hydroxy-17-oxo-5,8,11,14,21,24,27,30,33,36,39-undecaoxa-2-thia-18-azahentetracontyl)benzamido)-5-(piperidin-1-yl)phenyl)-N-(3-(trifluoromethyl)benzyl)isonicotinamide]	>80		>80%	1000 to 7940	< 10	< 10
COCCOCCOCCOCCOCCOCCOCCOCCNC(=O)CCOCCOCCOCCOCCSCc1cccc(C(=O)Nc2ccc(N3CCCCC3)cc2-c2cc(C(=O)NCc3cccc(C(F)(F)F)c3)ccn2)c1 [Example 148, 2-(2-(3-(27-oxo-2,5,8,11,14,17,20,23,30,33,36,39-dodecaoxa-42-thia-26-azatritetracontan-43-yl)benzamido)-5-(piperidin-1-yl)phenyl)-N-(3-(trifluoromethyl)benzyl)isonicotinamide]	>80		>80%	1000 to 7940	< 10	< 10
CN(CCOCCOCCOCCC(=O)O)C(=O)c1cccc(C(=O)Nc2ccc(Cl)cc2-c2cc(C(=O)NCc3cccc(C(F)(F)F)c3)ccn2)c1 [Example 238, 3-{2-[2-(2-{1-[3-({4-chloro-2-[4-({[3-(trifluoromethyl)phenyl]methyl}carbamoyl)pyridin-2-yl]phenyl}carbamoyl)phenyl]-N-methylformamido}ethoxy)ethoxy]ethoxy}propanoic acid]	>80		>80%	10000 to 31600	< 10	< 10
